Measurements: patent publication US7273458B2, “Method of applying acoustic energy effective to alter transport or cell viability” (Georgia Tech Research Corporation, priority 1998, dated 2007)

Tested on: Prostate tumor cells (DU-145)
Test: Ultrasound-mediated uptake of fluorescent markers into prostate tumor cells (flow cytometry)
Assay type: cell-based
Settings: for time decay constant τ of average uptake versus time of addition after exposure: exponential fit, calcein added ≧15 s after exposure
Protocol: Prostate tumor cells (DU-145) were suspended in RPMI-1640 medium with 10% fetal bovine serum at 5×10^5 cells/ml. For each experimental condition, a 3 ml polypropylene tube was filled with the cell suspension at room temperature (22±2° C.) and the top of the tube was closed without entrapping any air bubbles. The cells were exposed to ultrasound at 24 kHz in a chamber that consisted of a cylindrical piezoelectric transducer sandwiched between two PVC pipes and filled with deionized and degassed water at room temperature. Pressure, pulse length, duty cycle, and the total exposure time of ultrasound exposure were controlled. Acoustic spectra during exposure were collected using a hydrophone placed in the exposure chamber. Calcein, a green-fluorescent membrane-impermeant marker, dissolved in saline, was added to the suspensions either before or at various times after exposure at a final concentration of 10 μM. Other fluorescent markers, with different sizes, were also used to determine membrane permeability. The cells were kept at room temperature for 15 minutes after exposure, and then placed on ice until they were centrifuged and resuspended in phosphate-buffered saline with 0.1 mg/ml of propidium iodide (a red-fluorescence viability stain). Cell-by-cell fluorescence was measured using flow cytometry, and 6 μm green-fluorescence microspheres were added to each sample at a constant concentration to provide an internal volumetric standard for determining concentrations of viable cells.

Compound: O=C(O)CN(CC(=O)O)Cc1cc2c(cc1O)Oc1cc(O)c(CN(CC(=O)O)CC(=O)O)cc1C21OC(=O)c2ccccc21 [calcein]
- uptake when added after ultrasound exposure (lifetime of membrane disruptions) (calcein added at different times after exposure): significant uptake occurred for up to two minutes after exposure
- average uptake when added 15 sec. after exposure compared to added before exposure (examined pressures 5.3, 7.1 and 8.0 atm): about 50 % less
- time decay constant τ of average uptake versus time of addition after exposure (incident pressure 5.3 atm): 78 s
- time decay constant τ of average uptake versus time of addition after exposure (incident pressure 7.1 atm): 66 s
- time decay constant τ of average uptake versus time of addition after exposure (incident pressure 8.0 atm): 56 s
- average cellular calcein uptake, plateau (ultrasound 24 kHz, increasing peak incident pressure, 20 pulses of 0.1 sec, 10% duty cycle, calcein 10 μM added before exposure): 20-25 % of external calcein concentration

Compound: bovine serum albumen [BSA]
- average uptake of molecules per exposed cell, less than that of calcein (same external concentration (10 μM), exposure conditions of FIG. 7, P=8.0 atm): about 60 % less
